Experimental data from patent US20060083711A1, “Methods and products related to the intracellular delivery of polysaccharides” (Massachusetts Institute of Technology, priority 2004, published 2006).
Several values for one entry are separate records, joined by “and”; a condition that tells them apart may be missing. Identical values can stand only once. Entries after “also recorded” stand apart in the source; their conditions may differ.

How the values were obtained:
[1] = system: Daudi cells; test: Whole cell proliferation assay; type: cell-based, human; conditions: for direct effect of kinase inhibitor on Daudi whole cell number: FBS-deficient media, 50 μM LY294002, 20 μM PD98059, or 1 μM SB203580
Description: For proliferation assays using Daudi cells, cells were collected from 75 cm^2 flasks, washed three times with FBS-deficient media or proliferation media, and resuspended into 10 ml of the same media. Cells were diluted to 1×10^5 cells/ml based on the reading of an electronic cell counter, and plated 1 ml/well in 24-well plates. Wells were treated with PBS, heparin, A5, or A5-heparin conjugate in 10 μl volumes, and incubated for 72 hours at 37° C., 5% CO2. A5-heparin conjugates were additionally supplemented with 50 μM LY294002, 20 μM PD98059, or 1 μM SB203580, 50 mM sodium chlorate, or 10 ng/ml FGF2, as appropriate. Whole cell number was converted to a percent growth relative to PBS treatment. Proliferation assays on NFS-1.0 C-1 and J.CaM1.6 cells were performed as described for Daudi cells.
To probe the role of sulfation patterns and fine structure in inducing the effects of A5-heparin conjugates, heparin was partially digested with heparinases prior to conjugation. Heparin was diluted to 20 μg/ml in PBS and incubated with 5 mU/ml hepI or hepIII or an equivalent volume of PBS for 30 minutes. Digestion was confirmed by UV spectroscopy at 232 nm. Digested heparin was subsequently conjugated with A5 as described. A5 binding to the heparin fragments was confirmed using an Azure A competition assay as previously described. Daudi cells, plated as described at 1×10^5 cells/ml in 24-well plates, 1 ml/well, were treated with conjugates at a heparin concentration of 1 μg/ml or an equivalent volume of PBS. After incubating for 72 hours at 37° C., 5% CO2, the resultant whole cell count was determined by electronic cell counter, and data were converted to a percent growth relative to Daudi treated with PBS alone.
To examine the effects of protamine sulfate and heparinases on Daudi growth, cells were collected from 75 cm^2 flasks, pelletted, and resuspended into 10 ml of propagation media. Cells were diluted to 1×10^5 cells/ml based on the reading of an electronic cell counter, and plated 1 ml/well in 24-well plates. Protamine sulfate was added between 1 and 100,000 ng/ml. HepI and hepIII were added between 0.5 and 500 μU/ml for 24, 48, or 72 hours. Whole cell counts from heparinase assays were converted to percent reduction in whole cell number relative to untreated.

[2] = system: PC-3 cells; test: PC-3 proliferation assay (whole cell number); type: cell-based, human; conditions: for effect of kinase inhibitor on heparin-mediated growth inhibition: 50 μM LY294002, 20 μM PD98059, 20 μM U0126, 1 μM SB203580, heparin 500 ng/ml
Description: PC-3 cells were grown until confluence in 75 cm^2 flasks. Each flask was washed with 20 ml PBS, and treated with 3 ml trypsin-EDTA at 37° C. for 3-5 minutes, until cells detached. Cells were centrifuged for 3 min at 195×g. The supernatant was aspirated, and the cells were resuspended in 10 ml media. The cell density was measured using an electronic cell counter, and the suspension was diluted to 50,000 cells/ml. The suspension was plated 1 ml/well into 24-well tissue culture plates. After a 24 hour incubation in a 5% CO2, 37° C. humidified incubator, the media was aspirated, the wells were washed with serum free media, and the cells were supplemented with media containing 0.1% FBS and incubated for 24 hours. Cells were sequentially treated with antibodies, kinase inhibitors, heparin, and FGF2. Antibodies to FGF2, FGFR1, or FGFR3 were added to yield a final dilution of 1:100. Kinase inhibitors were added sufficient to yield final concentrations of 50 μM LY294002, 20 μM PD98059, 1 μM SB203580, and 20 μM U0126. Heparin was added at 500 ng/ml unless otherwise noted. To produce heparin digests, heparin was treated with PBS, hepI, or hepIII for 30 minutes, and boiled for 30 minutes. prior to addition to cells. Digestion was verified by UV spectroscopy at 232 nm. FGF2 was added at 100 ng/ml unless otherwise specified. Cells were then incubated for 72 hours. Wells were then washed twice with PBS and treated with 0.5 ml trypsin-EDTA/well and incubated for 10 minutes at 37° C. Whole cell number was determined using an electronic cell counter. Data were averaged over three experiments, each consisting of four wells per condition.
PC-3 cells were grown until confluence in 75 cm^2 flasks. Each flask was washed with 20 ml PBS, and treated with 3 ml trypsin-EDTA at 37° C. for 3-5 minutes, until cells detached. Cells were centrifuged for 3 minutes at 195×g, the supernatant was aspirated, and the cells were resuspended in 10 ml media. The cell suspension was diluted to 50,000 cells/ml based on the readings of an electronic cell counter. The suspension was plated 1 ml/well into 24-well tissue culture plates. After a 24 hour incubation in a 5% CO2, 37° C. humidified incubator, the cells were washed with serum free media, supplemented with media containing 0.1% FBS, and incubated for 24 hours. Cells were treated with heparin, HS or FGF2 as appropriate. Heparin was added at 500 ng/ml unless otherwise noted. FGF2 was added at 100 ng/ml unless otherwise specified. Cells were then incubated for 72 hours. Wells were then washed twice with PBS and treated with 0.5 ml trypsin-EDTA/well and incubated for 10 minutes at 37° C. Whole cell number was determined using an electronic cell counter. Data were averaged over three experiments, each consisting of four wells per condition.
For antibody and kinase inhibitor experiments, antibodies and kinase inhibitors were added prior to HSGAGs or FGF2. […]
To produce heparin digests, heparin was treated with PBS, heparinase I (hepI), or hepIII for 30 minutes, and boiled for 30 prior to addition to cells. Digestion was verified and quantified by UV spectroscopy at 232 nm (27). […]
A preliminary screen was performed on PC-3 cells by proliferation assay using the nine polymers described at polymer:heparin (w/w) ratios of 10:1, 20:1, 30:1, 40:1, and 60:1. The three best formulations (polymer and ratio) were selected and analyzed further. […] In vitro assessment of polymer activity was measured by proliferation assay with a heparin concentration of 1 μg/ml. […]

[3] = biological target: FGFR1c on PC-3 cells (human) (UniProt P11362); test: cell-based or functional assay
[4] = system: B16-F10 cells; test: Whole cell proliferation assay; type: cell-based, mouse; conditions: 10 ng/ml FGF2
Description: Adhesion cells (B16-F10, B16-BL6, SMCs, BAECs, NIH 3T3, SK-ES-1, Panc-1, and SW-1088) were seeded in 24-well plates at 1 ml/well as well as in 6-well plates at 3 ml/well, both at a density of 5×10^4 cells/ml. The plates were incubated for 24 hours at 37° C., 5% CO2. The cells were then washed with PBS and supplemented with media as appropriate. Cells were treated with PBS, heparin, polymer, or polymer-heparin conjugate, in 10 μl quantities at appropriate concentrations. Cells were incubated at 37° C., 5% CO2 for 72 hours, after which, each well was treated with 500 μl (24 well plates) or 1 ml (6 well plates) trypsin-EDTA for 5-15 minutes at room temperature, after which 400 μl was used to count the cell number with an electronic cell counter. […] Panc-1 cells were only tested in 10% FBS. Effects of conjugate were normalized to co-treatment without conjugate.
B16-F10 cells were grown until confluent, washed with PBS, treated with 3 ml trypsin-EDTA per 75 cm^2 tissue culture flask at 37° C. for 3-5 min, pelleted, and resuspended in FBS-deficient media. Cell concentration was determined with an electronic cell counter. […] Cells were treated with PBS, heparin, A5, or A5-heparin conjugate, added in 10 μl quantities, to yield a polymer concentration of 20 μg/ml and a heparin concentration of 1 μg/ml. […]

[5] = system: Erk1, Erk2 in PC-3 cells; test: Whole cell ELISA; type: cell-based, human; conditions: 10 ng/ml FGF2 or 500 ng/ml heparin; 5, 15, or 60 minutes
Description: (§1) ELISA was performed on whole cells to determine a quantifiable relative level of kinase activity. PC-3 cells were grown until confluence in 75 cm^2 flasks. Each flask was washed with 20 ml PBS, and treated with 3 ml trypsin-EDTA at 37° C. for 3-5 minutes, until cells detached. Cells were centrifuged for 3 min at 195×g. The supernatant was aspirated, and the cells were resuspended in 10 ml media. The cell density was measured using an electronic cell counter, and the suspension was diluted to 50,000 cells/ml. 100 mm dishes were supplemented with 10 ml cell suspension per dish. After a 24 hour incubation the media was aspirated, the dishes washed with serum free media, and the cells supplemented with media containing 0.1% FBS and incubated for 24 hours. Dishes were treated with PBS, 10 ng/ml FGF2, or 500 ng/ml heparin for 5, 15, or 60 minutes. Media was then aspirated, the cells were washed with 10 ml PBS, and each dish was treated with 5 ml Trizol reagent. Cell extract was added to 96-well plates previously incubated for 1 hour with primary antibodies to Erk1, Erk2 or phospho-Erk1/2. […] The reaction was quenched with 1 M HCl, and the plates were analyzed using a UV plate reader at 450 nm. Data were quantified by comparing to a standardized curve with varying concentrations of untreated cells.

[6] = system: phospho-Erk1/2 in PC-3 cells; test: Whole cell ELISA; type: cell-based, human; conditions: 10 ng/ml FGF2; 5, 15, or 60 minutes
Description: as §1

Chain of UniProt P11362 (P11362 22-822): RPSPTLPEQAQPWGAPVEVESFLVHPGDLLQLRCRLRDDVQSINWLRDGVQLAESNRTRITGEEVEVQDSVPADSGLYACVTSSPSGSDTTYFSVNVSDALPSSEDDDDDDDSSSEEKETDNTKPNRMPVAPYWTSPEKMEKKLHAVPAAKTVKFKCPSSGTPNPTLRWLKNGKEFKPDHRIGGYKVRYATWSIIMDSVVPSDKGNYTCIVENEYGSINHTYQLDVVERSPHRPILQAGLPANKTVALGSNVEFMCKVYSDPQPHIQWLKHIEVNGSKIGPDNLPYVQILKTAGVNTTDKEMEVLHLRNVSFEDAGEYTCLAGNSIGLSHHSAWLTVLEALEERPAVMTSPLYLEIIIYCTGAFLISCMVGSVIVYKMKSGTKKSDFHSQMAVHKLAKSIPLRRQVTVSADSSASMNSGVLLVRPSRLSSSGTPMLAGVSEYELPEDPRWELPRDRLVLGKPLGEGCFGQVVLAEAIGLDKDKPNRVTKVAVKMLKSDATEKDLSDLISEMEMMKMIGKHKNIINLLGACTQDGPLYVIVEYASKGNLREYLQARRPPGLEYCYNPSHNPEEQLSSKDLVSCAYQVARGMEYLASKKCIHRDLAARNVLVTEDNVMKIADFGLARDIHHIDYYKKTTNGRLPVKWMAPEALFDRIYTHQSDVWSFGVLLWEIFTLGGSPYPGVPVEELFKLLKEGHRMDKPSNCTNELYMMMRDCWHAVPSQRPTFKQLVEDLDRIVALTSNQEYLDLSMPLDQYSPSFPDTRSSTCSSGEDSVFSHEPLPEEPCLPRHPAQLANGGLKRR

Compound: protamine sulfate
- reduction in whole cell number ([1]; protamine sulfate 1×10^5 ng/ml, media with 10% FBS, three days): 12.9±2.8%
- effect on whole cell number ([1]; protamine sulfate concentrations less than 1×10^5 ng/ml, 10% FBS): no effect

Compound: N#CC(=C(/N)Sc1ccccc1N)/C(C#N)=C(/N)Sc1ccccc1N [U0126]
- effect of kinase inhibitor on heparin-mediated growth inhibition [2]: eliminate the ability of heparin to inhibit PC-3 growth; also recorded: prevented heparin-mediated growth inhibition

Compound: COc1cccc(-c2cc(=O)c3ccccc3o2)c1N [PD98059]
- effect of kinase inhibitor on heparin-mediated growth inhibition [2]: eliminate the ability of heparin to inhibit PC-3 growth; also recorded: prevented heparin-mediated growth inhibition
- direct effect of kinase inhibitor on Daudi whole cell number [1]: neither inhibition of PI3K with LY294002 (p>0.39) nor inhibition of Erk and Mek with PD98059 (p>0.64) had a direct effect

Compound: Recombinant human FGF2 (from UniProt P09038 135-288) (ligand)
- increase in proliferation of PC-3 cells at 100 ng/ml FGF2 [3]: 15%
- upregulation of phospho-Erk1/2 in PC-3 cells (whole cell ELISA) [3]: 2 to 3 fold

Compound: C[S+]([O-])c1ccc(-c2nc(-c3ccncc3)c(-c3ccc(F)cc3)[nH]2)cc1 (stereo not drawn) [SB203580]
- effect of kinase inhibitor on heparin-mediated growth inhibition [2]: did not eliminate the effect of heparin; also recorded: had no effect
- direct effect of kinase inhibitor on Daudi whole cell number [1]: caused a significant reduction

Compound: FGF2: Recombinant human FGF2
- inhibition of cell number by FGF2 alone [4]: 26.28±7.23%
- Erk1 or Erk2 levels [5]: no significant effect
- upregulation of phospho-Erk1/2 [6]: 2-3 fold
- increase in proliferation (whole cell number) ([2]; 100 ng/ml FGF2): ~15% and 15.6±3.1%
- proliferation ([2]; FGF2 doses of 50 ng/ml and lower): did not promote significant proliferation
- effect on Daudi proliferation ([1]; 10 ng/ml FGF2): did not affect Daudi proliferation
